Test results: the NIST ThermoML archive (doi:10.1016/j.tca.2016.04.013)

Tests used:
[1] = molar heat capacity at constant pressure; details: 101.33 kPa, Crystal, relaxation calorimetry
[2] = 101.33 kPa, Crystal, relaxation calorimetry

Oc1ncc(Cl)c(O)n1 [5-chloro-2,4-pyrimidinedione]
Details	molar entropy, [2] [J/K/mol]	molar heat capacity at constant pressure, [1] [J/K/mol]
0.5 K	0.000378	0.000485
1 K	0.00108	0.00194
2 K	0.00473	0.0116
2.04 K	–	0.0119
2.26 K	–	0.0165
2.51 K	–	0.0224
2.79 K	–	0.0297
3 K	0.0135	0.0367
3.1 K	–	0.0407
3.44 K	–	0.0549
3.82 K	–	0.0739
4 K	0.0301	0.085
4.24 K	–	0.101
4.71 K	–	0.138
5 K	0.0569	0.164
5.24 K	–	0.188
5.81 K	–	0.257
6 K	0.0966	0.282
6.44 K	–	0.35
7 K	0.152	0.446
7.17 K	–	0.479
7.91 K	–	0.649
8 K	0.225	0.665
8.78 K	–	0.878
9 K	0.319	0.945
9.74 K	–	1.19
10 K	0.435	1.28
10.81 K	–	1.59
11.99 K	–	2.14
13.31 K	–	2.79
14.74 K	–	3.64
15 K	1.39	3.81
16.35 K	–	4.68
18.13 K	–	6.06
20 K	2.96	7.44
20.12 K	–	7.49
22.32 K	–	9.36
24.77 K	–	11.49
25 K	5.07	11.69
27.49 K	–	13.93
30 K	7.59	16.14
30.5 K	–	16.6
33.86 K	–	19.52
35 K	10.42	20.57
37.57 K	–	22.81
40 K	13.44	24.87
41.69 K	–	26.3
45 K	16.61	28.97
46.26 K	–	29.88
50 K	19.87	32.81
51.34 K	–	34.08
56.96 K	–	37.64
60 K	26.48	39.81
63.23 K	–	41.77
70 K	33.09	45.98
70.19 K	–	45.99
77.89 K	–	50.5
80 K	39.6	51.52
86.44 K	–	54.98
90 K	45.96	56.6
95.96 K	–	59.39
100 K	52.17	61.33
106.02 K	–	64.02
110 K	58.23	65.83
116.12 K	–	68.52
120 K	64.15	70.16
126.18 K	–	72.83
130 K	69.93	74.35
136.3 K	–	76.98
140 K	75.59	78.45
146.41 K	–	80.91
150 K	81.14	82.47
156.52 K	–	84.91
160 K	86.59	86.42
166.6 K	–	89.11
170 K	91.94	90.33
176.69 K	–	92.91
180 K	97.22	94.19
186.77 K	–	96.98
190 K	102.41	98.02
196.85 K	–	100.43
200 K	107.53	101.81
206.94 K	–	104.46
210 K	112.59	105.58
217.03 K	–	107.97
220 K	117.59	109.32
227.26 K	–	112.17
230 K	122.53	113.04
234.67 K	–	114.85
240 K	127.42	116.74
244.74 K	–	118.78
250 K	132.26	120.42
254.84 K	–	122.35
260 K	137.06	124.08
264.91 K	–	125.73
270 K	141.81	127.73
273.15 K	143.3	128.88
275 K	–	129.5
280 K	146.52	131.37
285.08 K	–	132.72
290 K	151.19	135
295.37 K	–	136.73
298.15 K	154.97	137.95
300 K	155.83	138.62
302.71 K	–	140.1

O=c1cc(Cl)[nH]c(=O)[nH]1 [6-chlorouracil]
Details	molar entropy, [2] [J/K/mol]	molar heat capacity at constant pressure, [1] [J/K/mol]
0.5 K	0.00109	0.00126
1 K	0.00269	0.00405
1.93 K	–	0.0182
2 K	0.00944	0.0203
2.15 K	–	0.0242
2.38 K	–	0.0322
2.65 K	–	0.043
2.95 K	–	0.0584
3 K	0.0242	0.0602
3.27 K	–	0.0782
3.63 K	–	0.103
4 K	0.0508	0.135
4.04 K	–	0.139
4.48 K	–	0.186
4.98 K	–	0.247
5 K	0.0926	0.252
5.52 K	–	0.332
6 K	0.152	0.415
6.12 K	–	0.436
6.79 K	–	0.58
7 K	0.232	0.631
7.53 K	–	0.771
8 K	0.333	0.908
8.35 K	–	1.02
9 K	0.459	1.25
9.26 K	–	1.35
10 K	0.612	1.66
10.25 K	–	1.77
11.34 K	–	2.31
12.58 K	–	3.02
13.97 K	–	3.91
15 K	1.8	4.63
15.49 K	–	4.99
17.19 K	–	6.32
19.09 K	–	7.91
20 K	3.67	8.68
21.19 K	–	9.7
23.51 K	–	11.78
25 K	6.08	13.17
26.09 K	–	14.1
28.91 K	–	16.74
30 K	8.88	17.67
32.12 K	–	19.59
35 K	11.94	22.04
35.65 K	–	22.58
39.54 K	–	25.93
40 K	15.15	26.22
43.88 K	–	29.29
45 K	18.47	30.18
48.68 K	–	32.81
50 K	21.85	33.87
54.02 K	–	36.6
59.94 K	–	40.61
60 K	28.63	40.68
66.52 K	–	44.81
70 K	35.37	46.77
73.83 K	–	48.95
80 K	41.97	52.2
81.96 K	–	53.22
90 K	48.41	57.15
90.91 K	–	57.53
100 K	54.67	61.75
100.89 K	–	61.78
110 K	60.76	66.1
111.04 K	–	66.68
120 K	66.7	70.26
121.13 K	–	70.82
130 K	72.48	74.29
131.15 K	–	74.92
140 K	78.13	78.22
141.29 K	–	78.76
150 K	83.66	82.08
151.38 K	–	82.6
160 K	89.08	85.89
161.47 K	–	86.43
170 K	94.4	89.66
171.56 K	–	90.19
180 K	99.63	93.41
181.61 K	–	94.08
190 K	104.78	97.14
191.69 K	–	97.83
200 K	109.85	100.85
201.81 K	–	101.23
210 K	114.86	104.56
211.89 K	–	105.16
220 K	119.81	108.26
222 K	–	108.99
230 K	124.71	111.96
232.08 K	–	112.88
240 K	129.55	115.64
242.1 K	–	116.48
250 K	134.35	119.33
252.19 K	–	120.07
260 K	139.1	123
262.33 K	–	123.73
270 K	143.81	126.67
272.41 K	–	127.71
273.15 K	145.28	127.82
280 K	148.48	130.33
282.41 K	–	131.41
290 K	153.12	133.98
292.56 K	–	134.98
298.15 K	156.87	136.94
300 K	157.72	137.62
302.57 K	–	138.3
